Experimental data published in patent US10952436B2, “Microbiocidal quinoline (thio)carboxamide derivatives” (SYNGENTA PARTICIPATIONS AG, priority 2017, dated 2021).
Where two headings read alike, the source gives them in different places.

Key:
[1] = system: Monographella nivalis (Microdochium nivale); assay: Monographella nivalis (Microdochium nivale)/Liquid Culture (Foot Rot Cereals); format: cell-based; settings: read-out: control of Monographella nivalis
[2] = system: Glomerella lagenarium (Colletotrichum lagenarium); assay: Glomerella lagenarium (Colletotrichum lagenarium)/Liquid Culture (Anthracnose); format: cell-based; settings: Colletotrichum orbiculare, read-out: control of Glomerella lagenarium
Gaeumannomyces graminis = assay: Gaeumannomyces graminis/Liquid Culture (Take-all of Cereals); format: cell-based; settings: read-out: control of Gaeumannomyces graminis
[3] = system: Botryotinia fuckeliana (Botrytis cinerea); assay: Botryotinia fuckeliana (Botrytis cinerea)/Liquid Culture (Gray Mould); format: cell-based; settings: read-out: control of Botryotinia fuckeliana
Fusarium culmorum [4] = assay: microbe, parasite or virus in culture; format: cell-based; settings: read-out: control of Fusarium culmorum
Fusarium culmorum [5] = assay: whole plant or invertebrate; format: in vivo; settings: in Triticum aestivum, read-out: control of Fusarium culmorum
Sclerotinia sclerotiorum = assay: Sclerotinia sclerotiorum/Liquid Culture (Cottony Rot); settings: read-out: control of Sclerotinia sclerotiorum
Experimental: Mycelia fragments of a newly grown liquid culture of the fungus are directly mixed into nutrient broth (Vogels broth). After placing a (DMSO) solution of test compound into a microtiter plate (96-well format) the nutrient broth containing the fungal material is added. The test plates are incubated at 24° C. and the inhibition of growth is determined photometrically 3-4 days after application.

[6] = system: Magnaporthe grisea (Pyricularia oryzae); assay: microbe, parasite or virus in culture; format: cell-based; settings: read-out: control of Magnaporthe grisea
[7] = system: Magnaporthe grisea (Pyricularia oryzae); assay: whole plant or invertebrate; format: in vivo; settings: foliar, read-out: control of Magnaporthe grisea
[8] = 200 ppm, liquid culture, compared to untreated control, 4-5 days after application
[9] = 200 ppm, liquid culture, compared to untreated control, 3-4 days after application

| Compound | inhibition of growth at 200 ppm [1, 8] | inhibition of growth at 200 ppm [2, 9] | inhibition of growth at 200 ppm (Gaeumannomyces graminis; [8]) | inhibition of growth at 200 ppm [3, 9] | inhibition of growth at 200 ppm (Fusarium culmorum [4]) | pest or weed control at 200 ppm (Fusarium culmorum [5]) | inhibition of growth at 20 ppm (Sclerotinia sclerotiorum) | melting point | inhibition of growth at 200 ppm [6] | pest or weed control at 200 ppm [7] | inhibition of growth at 200 ppm [1] | inhibition of growth at 200 ppm [2] | inhibition of growth at 200 ppm (Gaeumannomyces graminis) | inhibition of growth at 200 ppm [3] |
| --- | --- | --- | --- | --- | --- | --- | --- | --- | --- | --- | --- | --- | --- | --- |
| CC(C)(Cc1ccccc1)C(=O)Nc1cnc2c(F)cccc2c1 [Compound E-69, N-(8-fluoro-3-quinolyl)-2,2-dimethyl-3-phenyl-propanamide] | ≥ 80% | ≥ 80% | ≥ 80% | ≥ 80% | ≥ 80% | ≥ 80% | – | – | – | – | – | – | – | – |
| CC(C)CC(C)(Cc1ccccc1)C(=O)Nc1cnc2c(F)cccc2c1 (stereo not shown) [Compound E-87, 2-benzyl-N-(8-fluoro-3-quinolyl)-2,4-dimethyl-pentanamide] | ≥ 80% | ≥ 80% | ≥ 80% | ≥ 80% | ≥ 80% | ≥ 80% | ≥ 80% | 140 to 142 °C | ≥ 80% | – | – | – | – | – |
| C=C(C)CC(C)(Cc1ccccc1)C(=O)Nc1cnc2c(F)cccc2c1C (stereo not shown) [Compound E-65, 2-benzyl-N-(8-fluoro-4-methyl-3-quinolyl)-2,4-dimethyl-pent-4-enamide] | ≥ 80% | ≥ 80% | ≥ 80% | ≥ 80% | ≥ 80% | – | – | 105 to 109 °C | ≥ 80% | – | – | – | – | – |
| C=C(Cl)CC(C)(Cc1ccccc1)C(=O)Nc1cnc2c(F)cccc2c1C (stereo not shown) [Compound E-20, 2-benzyl-4-chloro-N-(8-fluoro-4-methyl-3-quinolyl)-2-methyl-pent-4-enamide] | ≥ 80% | ≥ 80% | – | ≥ 80% | ≥ 80% | ≥ 80% | ≥ 80% | 124 to 126 °C | ≥ 80% | ≥ 80% | – | – | – | – |
| CC(Cc1ccccc1)(CC1CC1)C(=O)Nc1cnc2c(F)cccc2c1 (stereo not shown) [Compound E-76, 2-benzyl-3-cyclopropyl-N-(8-fluoro-3-quinolyl)-2-methyl-propanamide] | ≥ 80% | ≥ 80% | ≥ 80% | ≥ 80% | ≥ 80% | – | – | 157 to 159 °C | ≥ 80% | ≥ 80% | – | – | – | – |
| CC(C)CC(C)(Cc1ccccc1)C(=O)Nc1cnc2ccccc2c1 (stereo not shown) [Compound E-85, 2-benzyl-2,4-dimethyl-N-(3-quinolyl)pentanamide] | – | ≥ 80% | ≥ 80% | ≥ 80% | ≥ 80% | – | – | 147 to 148 °C | – | – | – | – | – | – |
| CC(C)CC(C#N)(Cc1ccccc1)C(=O)Nc1cnc2c(F)cccc2c1 (stereo not shown) [Compound E-83, 2-benzyl-2-cyano-N-(8-fluoro-3-quinolyl)-4-methyl-pentanamide] | ≥ 80% | ≥ 80% | ≥ 80% | ≥ 80% | ≥ 80% | ≥ 80% | – | – | ≥ 80% | – | – | – | – | – |
| C=C(C)CC(C)(Cc1ccccc1)C(=O)Nc1cc2cccc(F)c2nc1C (stereo not shown) [Compound E-66, 2-benzyl-N-(8-fluoro-2-methyl-3-quinolyl)-2,4-dimethyl-pent-4-enamide] | ≥ 80% | ≥ 80% | ≥ 80% | ≥ 80% | ≥ 80% | ≥ 80% | – | – | ≥ 80% | – | – | – | – | – |
| CC(C)C[C@@](C)(Cc1ccccc1)C(=O)Nc1cnc2c(F)cccc2c1 [Compound F-20, (2S)-2-benzyl-N-(8-fluoro-3-quinolyl)-2,4-dimethyl-pentanamide] | ≥ 80% | ≥ 80% | ≥ 80% | ≥ 80% | ≥ 80% | ≥ 80% | – | – | – | – | – | – | – | – |
| CCCC(C)(Cc1ccccc1)C(=O)Nc1cnc2c(F)cccc2c1 (stereo not shown) [Compound E-77, 2-benzyl-N-(8-fluoro-3-quinolyl)-2-methyl-pentanamide] | ≥ 80% | ≥ 80% | ≥ 80% | ≥ 80% | ≥ 80% | ≥ 80% | – | – | ≥ 80% | – | – | – | – | – |
| CC(F)(F)CC(C)(Cc1ccccc1)C(=O)Nc1cnc2c(F)cccc2c1 (stereo not shown) [Compound E-68, 2-benzyl-4,4-difluoro-N-(8-fluoro-3-quinolyl)-2-methyl-pentanamide] | ≥ 80% | ≥ 80% | ≥ 80% | ≥ 80% | ≥ 80% | ≥ 80% | – | 156 to 158 °C | ≥ 80% | – | – | – | – | – |
| O=C(Nc1cnc2c(F)cccc2c1)C(Cc1ccccc1)CC(F)(F)F (stereo not shown) [Compound E-82, 2-benzyl-4,4,4-trifluoro-N-(8-fluoro-3-quinolyl)butanamide] | ≥ 80% | ≥ 80% | ≥ 80% | ≥ 80% | ≥ 80% | ≥ 80% | – | 161 to 164 °C | ≥ 80% | – | – | – | – | – |
| C=C(C)CC(C)(Cc1ccccc1)C(=O)Nc1cnc2c(F)cccc2c1 (stereo not shown) [Compound E-74, 2-benzyl-N-(8-fluoro-3-quinolyl)-2,4-dimethyl-pent-4-enamide] | – | – | – | – | ≥ 80% | ≥ 80% | ≥ 80% | 147 to 149 °C | ≥ 80% | – | ≥ 80% | ≥ 80% | ≥ 80% | ≥ 80% |
| CC(Cc1ccccc1)(CC1CC1(F)F)C(=O)Nc1cnc2c(F)cccc2c1 (stereo not shown) [Compound E-72, 2-benzyl-3-(2,2-difluorocyclopropyl)-N-(8-fluoro-3-quinolyl)-2-methyl-propanamide] | ≥ 80% | ≥ 80% | ≥ 80% | ≥ 80% | ≥ 80% | – | – | – | ≥ 80% | – | – | – | – | – |
| C=C(F)CC(C)(Cc1ccccc1)C(=O)Nc1cnc2c(F)cccc2c1 (stereo not shown) [Compound E-71, 2-benzyl-4-fluoro-N-(8-fluoro-3-quinolyl)-2-methyl-pent-4-enamide] | ≥ 80% | ≥ 80% | ≥ 80% | ≥ 80% | ≥ 80% | ≥ 80% | – | 132 to 134 °C | ≥ 80% | – | – | – | – | – |
| CC1(CC(C)(Cc2ccccc2)C(=O)Nc2cnc3c(F)cccc3c2)CC1 (stereo not shown) [Compound E-70, 2-benzyl-N-(8-fluoro-3-quinolyl)-2-methyl-3-(1-methylcyclopropyl) propanamide] | – | ≥ 80% | ≥ 80% | ≥ 80% | ≥ 80% | – | – | 149 to 151 °C | ≥ 80% | – | – | – | – | – |
| CC(Cc1ccccc1)(CC1CC1(Cl)Cl)C(=O)Nc1cnc2c(F)cccc2c1 (stereo not shown) [Compound E-75, 2-benzyl-3-(2,2-dichlorocyclopropyl)-N-(8-fluoro-3-quinolyl)-2-methyl-propanamide] | – | ≥ 80% | ≥ 80% | ≥ 80% | ≥ 80% | – | – | – | ≥ 80% | – | – | – | – | – |
